# From patent US10583112B2, “Benzo[b]furans as bromodomain inhibitors” (GlaxoSmithKline Intellectual Property (No. 2) Limited, priority 2016, dated 2020)
# Biological target: T1, BRD4 BD1 (Homo sapiens, UniProt O60885, Y390A)
# T1 construct: BRD4 (1-477) (Y97A) and (Y390A); made in house; host or cells: E. coli (pET15b vector)
# Assay: BRD4 BD1 TR-FRET competition assay
# Format: binding
# Settings: mean, n given; read-out: pIC50 in the BRD4 BD1 TR-FRET assay (converted)
# Description: Bromodomain binding was assessed utilising a time resolved fluorescent resonance energy transfer (TR-FRET) competition assay. To enable this approach a known, high affinity, pan-BET interacting small molecule was labelled with Alexa Fluor® 647, which is a far-red-fluorescent dye (Reference Compound X). Reference Compound X acts as a reporter of bromodomain binding and is the acceptor fluorophore component of the TR-FRET pair. Europium chelate, conjugated to an anti-6*His antibody, was utilised as the donor fluorophore in the TR-FRET pair. […]
# The competition of the compounds of formula (I) with Reference Compound X for binding to the BET family (BRD2, BRD3, BRD4 and BRDT) was assessed using protein truncates spanning both bromodomain 1 (BD1) and bromodomain 2 (BD2). […] Utilising a Fluorescence Polarisation approach, binding affinities for each of the single and double mutants for Reference Compound X were determined. […]
# All assay components were dissolved in an assay buffer composing of 50 mM HEPES pH7.4, 50 mM NaCl, 5% Glycerol, 1 mM DTT and 1 mM CHAPS. […] TR-FRET was detected using a Perkin Elmer Multimode plate reader, by exciting the donor fluorophore at λ337 nm and subsequently, after a delay of 50 μsecs, measuring emission of the donor and acceptor fluorophores at λ615 nm and λ665 nm, respectively. […]
row,IC50 [µM],SMILES
1,20,"CNC(=O)c1cc(C(=O)N[C@H]2[C@@H]3CN(C(=O)OC(C)(C)C)C[C@@H]32)cc2c1O[C@H](C)[C@H]2c1ccccc1 [Example 38, (1R,5S,6S)-tert-Butyl 6-((2R,3S)-2-methyl-7-(methylcarbamoyl)-3-phenyl-2,3-dihydrobenzofuran-5-carboxamido)-3-azabicyclo[3.1.0]hexane-3-carboxylate]"

# Biological target: T2, BRD4 BD2 (Homo sapiens, UniProt O60885, Y97A)
# T2 construct: BRD4 (1-477) (Y97A) and (Y390A); made in house; host or cells: E. coli (pET15b vector)
# Assay: BRD4 BD2 TR-FRET competition assay
# Format: binding
# Settings: in at least one of the TR-FRET assays
# Description: Bromodomain binding was assessed utilising a time resolved fluorescent resonance energy transfer (TR-FRET) competition assay. […] Europium chelate, conjugated to an anti-6*His antibody, was utilised as the donor fluorophore in the TR-FRET pair.
# In order to generate a TR-FRET signal, donor fluorophore is excited by a laser at λ337 nm, which subsequently leads to emission at λ618 nm.
# In order to monitor differential binding to either BD1 or BD2, single residue mutations of key tyrosines to alanine were made in the acetyl lysine binding pockets. To validate this approach, a double residue mutant tandem domain protein was produced for each of the BET family members.
# Final purification was completed by Superdex 200 prep grade size exclusion column. Purified protein was stored at −80° C. in 20 mM HEPES pH 7.5 and 100 mM NaCl.
# All assay components were dissolved in an assay buffer composing of 50 mM HEPES pH7.4, 50 mM NaCl, 5% Glycerol, 1 mM DTT and 1 mM CHAPS. […] An equal volume of 3 nM of anti-6*His Europium chelate was added to all wells, followed by a further 30 minute incubation at room temperature. TR-FRET was detected using a Perkin Elmer Multimode plate reader, by exciting the donor fluorophore at λ337 nm and subsequently, after a delay of 50 μsecs, measuring emission of the donor and acceptor fluorophores at λ615 nm and λ665 nm, respectively.
# cA four parameter curve fit of the following form was then applied: y=a+((b−a)/(1+(10^x/10^c)^d) • Where ‘a’ is the minimum, ‘b’ is the Hill slope, ‘c’ is the pIC50 and ‘d’ is the maximum.
row,Selectivity for BRD4 BD2 over BRD4 BD1 (BRD4 BD2 pIC50 - BRD4 BD1 pIC50) [log unit],SMILES
1,3.3,"CNC(=O)c1cc(C(=O)N[C@H]2[C@@H]3CN(C(=O)OC(C)(C)C)C[C@@H]32)cc2c1O[C@H](C)[C@H]2c1ccccc1 [Example 38, (1R,5S,6S)-tert-Butyl 6-((2R,3S)-2-methyl-7-(methylcarbamoyl)-3-phenyl-2,3-dihydrobenzofuran-5-carboxamido)-3-azabicyclo[3.1.0]hexane-3-carboxylate]"

# Same assay, conditions: inferred from the log unit selectivity
row,fold selective for BRD4 BD2 over BRD4 BD1,SMILES
1,at least 100 fold,"CNC(=O)c1cc(C(=O)N[C@H]2[C@@H]3CN(C(=O)OC(C)(C)C)C[C@@H]32)cc2c1O[C@H](C)[C@H]2c1ccccc1 [Example 38, (1R,5S,6S)-tert-Butyl 6-((2R,3S)-2-methyl-7-(methylcarbamoyl)-3-phenyl-2,3-dihydrobenzofuran-5-carboxamido)-3-azabicyclo[3.1.0]hexane-3-carboxylate]"

# Same assay, conditions: mean where stated, n given; read-out: pIC50 in the BRD4 BD2 TR-FRET assay (converted)
row,IC50 [nM],SMILES
1,10,"CNC(=O)c1cc(C(=O)N[C@H]2[C@@H]3CN(C(=O)OC(C)(C)C)C[C@@H]32)cc2c1O[C@H](C)[C@H]2c1ccccc1 [Example 38, (1R,5S,6S)-tert-Butyl 6-((2R,3S)-2-methyl-7-(methylcarbamoyl)-3-phenyl-2,3-dihydrobenzofuran-5-carboxamido)-3-azabicyclo[3.1.0]hexane-3-carboxylate]"
2,1000 to 100000,"CNC(=O)c1cc(C(=O)NCC(C)O)cc2c1O[C@@H](C)[C@@H]2c1ccccc1 (stereo partly drawn) [Example 107, (2S,3R)-N^5-(2-hydroxypropyl)-N^7,2-dimethyl-3-phenyl-2,3-dihydrobenzofuran-5,7-dicarboxamide]"
3,1000 to 100000,"CNC(=O)c1cc(C(=O)NC2C[C@H]2CCO)cc2c1O[C@H](CF)[C@H]2c1ccccc1 (stereo partly drawn) [Example 132, (2S,3S)-2-(Fluoromethyl)-N^5-((trans)-2-(2-hydroxyethyl)cyclopropyl)-N^7-methyl-3-phenyl-2,3-dihydrobenzofuran-5,7-dicarboxamide]"
4,1000 to 100000,"CCC(=O)N1C[C@@H]2[C@H](C1)[C@H]2NC(=O)c1cc(C(=O)NC)c2c(c1)[C@@H](c1ccccc1)[C@H](CF)O2 [Example 164, (2R,3R)-2-(Fluoromethyl)-N^7-methyl-3-phenyl-N^5-((1R,5S,6s)-3-propionyl-3-azabicyclo[3.1.0]hexan-6-yl)-2,3-dihydrobenzofuran-5,7-dicarboxamide]"
5,1000 to 100000,CNC(=O)c1cc(C(=O)Nc2nncn2C)cc2c1O[C@H](CF)[C@H]2c1ccccc1 [Example 172]
6,1000 to 100000,"CNC(=O)c1cc(C(=O)Nc2nnn(C)n2)cc2c1O[C@H](CF)[C@H]2c1ccccc1 [Example 174, (2S,3S)-2-(Fluoromethyl)-N^7-methyl-N^5-(2-methyl-2H-tetrazol-5-yl)-3-phenyl-2,3-dihydrobenzofuran-5,7-dicarboxamide]"
7,1000 to 100000,"CNC(=O)c1cc(C(=O)N[C@H]2[C@@H]3COC[C@@H]32)cc2c1O[C@@H](C)[C@@H]2c1cccc(OCCO)c1 [Example 181, (2S,3R)-N^5-((1R,5S,6r)-3-oxabicyclo[3.1.0]hexan-6-yl)-3-(3-(2-hydroxyethoxy)phenyl)-N^7,2-dimethyl-2,3-dihydrobenzofuran-5,7-dicarboxamide]"
8,1000 to 100000,"CNC(=O)c1cc(C(=O)NCCc2cccnc2)cc2c1O[C@@H](C)[C@@H]2c1cccc(OCCO)c1 [Example 183, (2S,3R)-3-(3-(2-hydroxyethoxy)phenyl)-N^7,2-dimethyl-N^5-(2-(pyridin-3-yl)ethyl)-2,3-dihydrobenzofuran-5,7-dicarboxamide]"
9,1000 to 100000,"CNC(=O)c1cc(C(=O)N[C@@H]2C[C@H]2CO)cc2c1O[C@@H](CF)[C@@H]2c1ccccc1 [Example 184, (2R,3R)-2-(fluoromethyl)-N^5-((1R,2R)-2-(hydroxymethyl)cyclopropyl)-N^7-methyl-3-phenyl-2,3-dihydrobenzofuran-5,7-dicarboxamide]"
10,1000 to 100000,"CNC(=O)c1cc(C(=O)Nc2cn[nH]c2)cc2c1O[C@@H](CF)[C@@H]2c1ccccc1 [Example 186, (2R,3R)-2-(fluoromethyl)-N^7-methyl-3-phenyl-N^5-(1H-pyrazol-4-yl)-2,3-dihydrobenzofuran-5,7-dicarboxamide]"
11,1000 to 100000,"CNC(=O)c1cc(C(=O)Nc2cnn(C)c2)cc2c1O[C@@H](CF)[C@@H]2c1ccccc1 [Example 187, (2R,3R)-2-(fluoromethyl)-N^7-methyl-N^5-(1-methyl-1H-pyrazol-4-yl)-3-phenyl-2,3-dihydrobenzofuran-5,7-dicarboxamide]"
12,1000 to 100000,"CNC(=O)c1cc(C(=O)NCCc2cnn(C)c2)cc2c1O[C@@H](C)[C@@H]2c1ccccc1 [Example 188, (2S,3R)-N^7,2-dimethyl-N^5-(2-(1-methyl-1H-pyrazol-4-yl)ethyl)-3-phenyl-2,3-dihydrobenzofuran-5,7-dicarboxamide]"
13,1000 to 100000,"CNC(=O)c1cc(C(=O)N[C@H]2[C@@H]3CN(C(C)=O)C[C@@H]32)cc2c1O[C@@H](C)[C@@H]2c1ccccc1 [Example 189, (2S,3R)-N^5-((1R,5S,6s)-3-acetyl-3-azabicyclo[3.1.0]hexan-6-yl)-N^7,2-dimethyl-3-phenyl-2,3-dihydrobenzofuran-5,7-dicarboxamide]"
14,1000 to 100000,"CNC(=O)c1cc(C(=O)N[C@H]2[C@@H]3CN(C(C)=O)C[C@@H]32)cc2c1O[C@@H](CF)[C@@H]2c1ccccc1 [Example 190, (2R,3R)-N^5-((1R,5S,6s)-3-acetyl-3-azabicyclo[3.1.0]hexan-6-yl)-2-(fluoromethyl)-N^7-methyl-3-phenyl-2,3-dihydrobenzofuran-5,7-dicarboxamide]"
15,1000 to 100000,"CNC(=O)c1cc(C(=O)Nc2ncn(C)n2)cc2c1O[C@@H](CF)[C@@H]2c1ccccc1 [Example 192, (2R,3R)-2-(fluoromethyl)-N^7-methyl-N^5-(1-methyl-1H-1,2,4-triazol-3-yl)-3-phenyl-2,3-dihydrobenzofuran-5,7-dicarboxamide]"
16,1000 to 100000,"CNC(=O)c1cc(C(=O)Nc2ccnnc2)cc2c1O[C@@H](CF)[C@@H]2c1ccccc1 [Example 193, (2R,3R)-2-(fluoromethyl)-N^7-methyl-3-phenyl-N^5-(pyridazin-4-yl)-2,3-dihydrobenzofuran-5,7-dicarboxamide]"
17,1000 to 100000,"CNC(=O)c1cc(C(=O)Nc2cn(C)nn2)cc2c1O[C@@H](CF)[C@@H]2c1ccccc1 [Example 194, (2R,3R)-2-(fluoromethyl)-N^7-methyl-N^5-(1-methyl-1H-1,2,3-triazol-4-yl)-3-phenyl-2,3-dihydrobenzofuran-5,7-dicarboxamide]"
18,1000 to 100000,"CNC(=O)c1cc(C(=O)Nc2nncn2C)cc2c1O[C@@H](CF)[C@@H]2c1ccccc1 [Example 195, (2R,3R)-2-(fluoromethyl)-N^7-methyl-N^5-(4-methyl-4H-1,2,4-triazol-3-yl)-3-phenyl-2,3-dihydrobenzofuran-5,7-dicarboxamide]"
19,1000 to 100000,"CNC(=O)c1cc(C(=O)Nc2cncnc2)cc2c1O[C@@H](CF)[C@@H]2c1ccccc1 [Example 200, (2R,3R)-2-(Fluoromethyl)-N^7-methyl-3-phenyl-N^5-(pyrimidin-5-yl)-2,3-dihydrobenzofuran-5,7-dicarboxamide]"
20,1000 to 100000,"CNC(=O)c1cc(C(=O)N[C@H]2[C@@H]3COC[C@@H]32)cc2c1O[C@@H](C)[C@@H]2c1cccc(OCCOC)c1 [Example 201, (2S,3R)-N^5-((1R,5S,6r)-3-oxabicyclo[3.1.0]hexan-6-yl)-3-(3-(2-methoxyethoxy)phenyl)-N^7,2-dimethyl-2,3-dihydrobenzofuran-5,7-dicarboxamide]"
